Test results taken from patent publication US12565501B2, “Muscarinic acetylcholine M1 receptor antagonists” (Contineum Therapeutics, Inc., priority 2019, dated 2026).

Target: T1, human M1 receptor (Homo sapiens, UniProt P11229)
T1 sequence (P11229 1-460): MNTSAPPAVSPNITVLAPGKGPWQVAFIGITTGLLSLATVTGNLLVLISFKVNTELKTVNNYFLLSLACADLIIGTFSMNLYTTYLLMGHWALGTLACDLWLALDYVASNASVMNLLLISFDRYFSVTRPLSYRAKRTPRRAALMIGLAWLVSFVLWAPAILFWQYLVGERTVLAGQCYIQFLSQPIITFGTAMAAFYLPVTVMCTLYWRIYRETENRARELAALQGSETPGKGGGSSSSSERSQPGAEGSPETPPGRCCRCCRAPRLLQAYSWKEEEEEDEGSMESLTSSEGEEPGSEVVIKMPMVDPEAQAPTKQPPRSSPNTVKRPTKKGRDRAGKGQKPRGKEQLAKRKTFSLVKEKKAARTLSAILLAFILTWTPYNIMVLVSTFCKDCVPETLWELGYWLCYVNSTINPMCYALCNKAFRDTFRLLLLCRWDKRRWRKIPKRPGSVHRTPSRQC
Test: In vitro functional assay of muscarinic acetylcholine receptor activity (aequorin calcium flux, reversal of EC80 acetylcholine response)
Format: cell-based
Conditions: CHO-K1 cells stably expressing human M1 receptor with aequorin; acetylcholine at EC80; calcium flux (luminescence); read-out: M1 IC50
Outline: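 CHO-K1 cells expressing human M1 and aequorin, loaded with 5 μM coelenterazine for 4 h, preincubated with compound 30 min at room temperature, then challenged with EC80 acetylcholine.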

Molecule | IC50 [nM]
CCC(OCC(=O)N1CC2CCC(C1)N2c1ccc(C#N)cn1)c1cc(F)cc(Br)c1 (racemic) [Example 218, 6-(3-(2-(1-(3-bromo-5-fluorophenyl)propoxy)acetyl)-3,8-diazabicyclo[3.2.1]octan-8-yl)nicotinonitrile] | < 10
COc1cncc(C2(OCC(=O)N3CC4CCC(C3)N4c3ccc(C#N)cn3)CCC2)c1 [Example 233, 6-(3-(2-(1-(5-methoxypyridin-3-yl)cyclobutoxy)acetyl)-3,8-diazabicyclo[3.2.1]octan-8-yl)nicotinonitrile] | < 10
N#Cc1ccc(N2[C@@H]3CC[C@H]2CN(C(=O)CCNC2(c4cccnc4)CC2)C3)nc1 [Example 19, 6-(3-(3-((1-(pyridin-3-yl)cyclopropyl)amino)propanoyl)-3,8-diazabicyclo[3.2.1]octan-8-yl)nicotinonitrile] | 100 to 1000
N#Cc1ccc(N2C3CCC2CN(C(=O)COC2(c4ccccc4C#N)CC2)C3)nc1 [Example 294, 6-(3-(2-(1-(2-cyanophenyl)cyclopropoxy)acetyl)-3,8-diazabicyclo[3.2.1]octan-8-yl)nicotinonitrile] | 100 to 1000
N#Cc1ccc(N2C3CCC2CN(C(=O)CNC2(c4cc(F)ccc4F)CC2)C3)nc1 [Example 71, 6-(3-((1-(2,5-difluorophenyl)cyclopropyl)glycyl)-3,8-diazabicyclo[3.2.1]octan-8-yl)nicotinonitrile] | 100 to 1000
CC(OCCC(=O)N1CC2CCC(C1)N2c1ccc(C#N)cn1)c1cccc2ncnn12 (racemic) [Example 308, 6-(3-(3-(1-([1,2,4]triazolo[1,5-a]pyridin-5-yl)ethoxy)propanoyl)-3,8-diazabicyclo[3.2.1]octan-8-yl)nicotinonitrile] | < 10
COc1cccc2c1CCN(CC(=O)N1CC3CCC(C1)N3c1ccc(C#N)cn1)C2C (racemic) [Example 121, 6-(3-(2-(5-methoxy-1-methyl-3,4-dihydroisoquinolin-2(1H)-yl)acetyl)-3,8-diazabicyclo[3.2.1]octan-8-yl)nicotinonitrile] | 100 to 1000
N#Cc1ccc(N2C3CCC2CN(C(=O)CNC2(c4cccc(OC(F)(F)F)c4)CCC2)C3)nc1 [Example 119, 6-(3-((1-(3-(trifluoromethoxy)phenyl)cyclobutyl)glycyl)-3,8-diazabicyclo[3.2.1]octan-8-yl)nicotinonitrile] | 100 to 1000
N#Cc1ccc(N2[C@@H]3COC[C@H]2CN(C(=O)CCNC2(c4ccc(F)c(F)c4)CC2)C3)nc1 [Example 39, 6-(7-(3-((1-(3,4-difluorophenyl)cyclopropyl)amino)propanoyl)-3-oxa-7,9-diazabicyclo[3.3.1]nonan-9-yl)nicotinonitrile] | 100 to 1000
N#Cc1ccc(N2C3CCC2CN(C(=O)COC2CCc4ccc(F)cc42)C3)nc1 (racemic) [Example 183, 6-(3-(2-((6-fluoro-2,3-dihydro-1H-inden-1-yl)oxy)acetyl)-3,8-diazabicyclo[3.2.1]octan-8-yl)nicotinonitrile] | 10 to 100
N#Cc1ccc(N2C3CCC2CN(C(=O)COC2(c4ccncc4)CC2)C3)nc1 [Example 227, 6-(3-(2-(1-(pyridin-4-yl)cyclopropoxy)acetyl)-3,8-diazabicyclo[3.2.1]octan-8-yl)nicotinonitrile] | 100 to 1000
N#Cc1ccc(N2[C@@H]3CC[C@H]2CN(C(=O)CCNC2(c4ccc(F)c(Cl)c4)CC2)C3)nc1 [Example 35, 6-(3-(3-((1-(3-chloro-4-fluorophenyl)cyclopropyl)amino)propanoyl)-3,8-diazabicyclo[3.2.1]octan-8-yl)nicotinonitrile] | 10 to 100
COc1cccnc1C(F)(F)/C=C/C(=O)N1C[C@H]2CC[C@@H](C1)N2c1ccc(C#N)cn1 [Example 144, 6-(3-((E)-4,4-difluoro-4-(3-methoxypyridin-2-yl)but-2-enoyl)-3,8-diazabicyclo[3.2.1]octan-8-yl)nicotinonitrile] | < 10
COc1c(F)ccc(C2(NCC(=O)N3CC4CCC(C3)N4c3ccc(C#N)cn3)CC2)c1F [Example 112, 6-(3-((1-(2,4-difluoro-3-methoxyphenyl)cyclopropyl)glycyl)-3,8-diazabicyclo[3.2.1]octan-8-yl)nicotinonitrile] | < 10
N#Cc1ccc(N2[C@@H]3CC[C@H]2CN(C(=O)CCNC2(c4cccc5ncccc45)CC2)C3)nc1 [Example 27, 6-(3-(3-((1-(quinolin-5-yl)cyclopropyl)amino)propanoyl)-3,8-diazabicyclo[3.2.1]octan-8-yl)nicotinonitrile] | < 10
N#Cc1ccc(N2C3CCC2CN(C(=O)C2CC(O)(c4cccc5ncccc45)C2)C3)nc1 (stereo not shown) [Example 152, 6-(3-(3-hydroxy-3-(quinolin-5-yl)cyclobutane-1-carbonyl)-3,8-diazabicyclo[3.2.1]octan-8-yl)nicotinonitrile] | 1000 to 10000
COc1cncc(C(OCC(=O)N2CC3CCC(C2)N3c2ccc(C#N)cn2)C(F)F)c1 (racemic) [Example 202, 6-(3-(2-(2,2-difluoro-1-(5-methoxypyridin-3-yl)ethoxy)acetyl)-3,8-diazabicyclo[3.2.1]octan-8-yl)nicotinonitrile] | < 10
N#Cc1ccc(N2[C@@H]3CC[C@H]2CN(C(=O)CCNC2(c4cccc(F)c4F)CC2)C3)nc1 [Example 32, 6-(3-(3-((1-(2,3-difluorophenyl)cyclopropyl)amino)propanoyl)-3,8-diazabicyclo[3.2.1]octan-8-yl)nicotinonitrile] | 10 to 100
N#Cc1ccc(N2C3CCC2CN(C(=O)COC2(c4ccc(F)cc4Br)CC2)C3)nc1 [Example 221, 6-(3-(2-(1-(2-bromo-4-fluorophenyl)cyclopropoxy)acetyl)-3,8-diazabicyclo[3.2.1]octan-8-yl)nicotinonitrile] | 10 to 100
N#Cc1ccc(N2C[C@H]3CC[C@@H]2CN3C(=O)CNC2(c3ccc(F)cc3F)CC2)nc1 [Example 81, 6-((1R,4R)-5-((1-(2,4-difluorophenyl)cyclopropyl)glycyl)-2,5-diazabicyclo[2.2.2]octan-2-yl)nicotinonitrile] | > 1000
6-(3-(2-(1-(1-methyl-6-oxo-1,6-dihydropyridin-3-yl) cyclopropoxy)acetyl)-3,8-diazabicyclo[3.2.1]octan- 8-yl)nicotinonitrile [Example 301] | 100 to 1000
N#Cc1ccc(N2C3CCC2CN(C(=O)COC2(c4ccc(F)cc4)CCC2)C3)nc1 [Example 234, 6-(3-(2-(1-(4-fluorophenyl)cyclobutoxy)acetyl)-3,8-diazabicyclo[3.2.1]octan-8-yl)nicotinonitrile] | 10 to 100
COc1cc([C@H](C)NCC(=O)N2CC3CCC(C2)N3c2ccc(C#N)cn2)ccc1F [Example 66, 6-(3-(((S)-1-(4-fluoro-3-methoxyphenyl)ethyl)glycyl)-3,8-diazabicyclo[3.2.1]octan-8-yl)nicotinonitrile] | < 10
N#Cc1ccc(N2C3CCC2CN(C(=O)COC(c2ccc(F)c(F)c2)C(F)F)C3)nc1 (racemic) [Example 201, 6-(3-(2-(1-(3,4-difluorophenyl)-2,2-difluoroethoxy)acetyl)-3,8-diazabicyclo[3.2.1]octan-8-yl)nicotinonitrile] | 10 to 100
COc1cnccc1C(F)(F)CCC(=O)N1CC2CCC(C1)N2c1ccc(C#N)cn1 [Example 140, 6-(3-(4,4-difluoro-4-(3-methoxypyridin-4-yl)butanoyl)-3,8-diazabicyclo[3.2.1]octan-8-yl)nicotinonitrile] | < 10
